The structures appear in SMILES notation. pIC50: −log10 of the molar value.

IC50 and inhibition data for 58 compounds are collected here from ChEMBL document CHEMBL1138583, “Pharmacophore modeling study based on known spleen tyrosine kinase inhibitors together with virtual screening for identifying novel inhibitors” (Bioorg Med Chem Lett, 2009).

In the first experiment the target is T1, Tyrosine-protein kinase SYK (Homo sapiens, UniProt P43405). Briefly: Inhibition of recombinant Syk.
By pIC50 is commonly meant the negative decadic logarithm of the IC50, by convention in mol/L. Turning to `NCCNc1ncc(C(N)=O)c(Nc2ccccc2)n1`, the pIC50 was 6.55. The same measure, in the same setting: next, `CC(C)c1cccc(Nc2nc(NCCN)ncc2C(N)=O)c1`: 7.04; `Cc1cc(Nc2nn(C(C)C)c(=O)c3cc(N4CCN(C)CC4)ccc23)[nH]n1`: 5.27; `COC(=O)c1ccccc1-c1ccc(/C=C2/SC(=S)N(Cc3ccccc3)C2=O)o1`: 5.40. Same read-out and setting: next, `Cc1cc(Nc2nccc(-c3nc(C)c(CCO)s3)n2)cc(C(F)(F)F)c1`: 7.66; `CCc1cc(NCC(C)(C)N)n2nc(Nc3cc(OC)cc(OC)c3)c(C(N)=O)c2n1`: 5.41; `COc1ccc(CNS(=O)(=O)c2ccc3c(c2)/C(=C/c2cn(C)c4ccc(OC)cc24)C(=O)N3)cc1`: 5.40. Still for that read-out and setting: next, `COc1cc(Nc2nc(N[C@@H]3CCCC[C@@H]3N)n3cnnc3c2C(N)=O)cc(OC)c1`: 8.05; `COc1cc(Nc2nc(NC3CCCC[C@H]3N)n3nc(-c4cccc(O)c4)nc3c2C(N)=O)cc(OC)c1` (stereo partly drawn): 8.15. Take `COc1cc(Nc2nc(NC3CCCC[C@H]3N)n3nc(C)nc3c2C(N)=O)cc(OC)c1` (stereo partly drawn): the pIC50 was 7.95. Still for that read-out and setting: the value for `COC(=O)c1ccc(COc2ccc(Nc3nccc(-c4nccs4)n3)cc2)cc1` was 5.70; that for `CC(C)Oc1cccc(Nc2nc(NCCN)ncc2C(N)=O)c1` was 7.14; that for `Cc1cc(C)cc(Nc2nc(N[C@H](CN)c3ccccc3)n3ccnc3c2C(N)=O)c1` was 7.68.

`Cc1cc(C)cc(Nc2nc(CC3CCCC[C@H]3N)n3ccnc3c2C(N)=O)c1` (stereo partly drawn): the pIC50 was 8.60. Same read-out and setting: the value for `Cc1cc(Nc2nn(C(C)C)c(=O)c3cc(N4CCOCC4)ccc23)[nH]n1` was 5.96; that for `NC(=O)c1cncnc1Nc1cccc(C(F)(F)F)c1` was 5.30; that for `NCCCNc1nc(-c2cccc(C(F)(F)F)c2)cc2ncccc12` was 6.08.

For `COCCOc1ccc2c(Nc3cc(C)[nH]n3)nn(C(C)C)c(=O)c2c1`, the pIC50 is 6.05. Same read-out and setting: next, `N#Cc1cccc(Nc2nc(NCCN)ncc2C(N)=O)c1`: 6.96. As to `COc1cc(Nc2nc(NC3CCCC[C@H]3N)n3cnnc3c2C(N)=O)cc(OC)c1` (stereo partly drawn), the pIC50 was 8.43. Still for that read-out and setting: the value for `Cc1c(/C=C2/C(=O)Nc3ccc(S(N)(=O)=O)cc32)c2ccccc2n1C` was 5.40; that for `c1cncc(Oc2cccc(Nc3nccc(-c4nccs4)n3)c2)c1` was 6.30. Still for that read-out and setting: next, `Nc1ccccc1COc1ccc(Nc2nccc(-c3nccs3)n2)cc1`: 6.30; `Cc1cc(Nc2nn(CC3CCCNC3)c(=O)c3ccccc23)[nH]n1` (stereo not drawn): 5.19; `OCCCOc1cc(Nc2nccc(-c3nccs3)n2)cc(C(F)(F)F)c1`: 7.59.

On to `CN(C)CCN(C)c1ncc(C(N)=O)c(Nc2cccc(C(F)(F)F)c2)n1`, for which the negative-log IC50 (pIC50) was 5.00. Same read-out and setting: the value for `CN(C)c1ccc(-c2cc3ncccc3c(NC(C)(C)CN)n2)cc1` was 6.51; that for `c1cc(COc2ccc(Nc3nccc(-c4nccs4)n3)cc2)ccn1` was 5.70. `COc1cc(/C=C/[N+](=O)[O-])ccc1O`: the negative logarithm of the IC50 (pIC50) is 4.12. Regarding `c1ccc(COc2ccc(Nc3nccc(-c4nccs4)n3)cc2)cc1`, the pIC50 is 6.00. `c1c[nH]c(-c2ccnc(Nc3ccc(Oc4ccc5c(c4)OCO5)cc3)n2)c1`: the pIC50 was 6.30. On the same count and under the same terms, the value for `c1cc(-c2nccs2)nc(Nc2ccc(OCC3CCCCC3)cc2)n1` was 5.70; that for `Cc1ncc(C(N)=O)c(Nc2cccc(C(F)(F)F)c2)n1` was 5.30.

`CCc1cccc(Nc2nc(NCCN)ncc2C(N)=O)c1`: the pIC50 was 7.28. On the same count and under the same terms, the value for `FC(F)(F)c1ccc(Nc2nccc(-c3nccs3)n2)cc1` was 6.30; that for `Fc1ccc(Nc2nccc(-c3nccs3)n2)cc1` was 6.00. Still for that read-out and setting: next, `Oc1ccc(Nc2nccc(-c3nccs3)n2)cc1`: 6.30; `Cc1cc(Nc2nccc(-c3nccs3)n2)cc(C(F)(F)F)c1`: 6.96; `COc1cc(Nc2nc(N[C@@H]3CCCC[C@@H]3N)n3ncnc3c2C(N)=O)cc(OC)c1`: 8.40.

For `Cc1cccc(Nc2nc(N[C@@H]3CCCC[C@@H]3N)ccc2C(N)=O)c1`, the pIC50 is 7.30. Same read-out and setting: next, `N#C/C(=C\c1ccc(O)c(O)c1)C(N)=S` [TYRPHOSTIN 47]: 4.42; `COc1cc(Nc2nc(NC3CCCC[C@H]3N)n3ncnc3c2C(N)=O)cc(OC)c1` (stereo partly drawn): 9.00; `COc1cc(/C=C/[N+](=O)[O-])ccc1OC(=O)c1ccccc1`: 5.42. The same measure, in the same setting: the value for `CCOc1cccc(Nc2nc(NCCN)ncc2C(N)=O)c1` was 7.09; that for `Cc1ccc(C)c(Nc2nccc(-c3nccs3)n2)c1` was 5.74; that for `O=[N+]([O-])c1ccccc1COc1ccc(Nc2nccc(-c3nccs3)n2)cc1` was 5.70. The same measure, in the same setting: the value for `CS(=O)(=O)c1cccc(Oc2cccc(Nc3nccc(-c4nccs4)n3)c2)c1` was 6.30; that for `c1ccc2cc(Nc3nccc(-c4nccs4)n3)ccc2c1` was 5.70; that for `COc1cc(Nc2nc(NC3CCCCC[C@H]3N)n3ccnc3c2C(N)=O)cc(OC)c1` (stereo partly drawn) was 8.80.

With `Cc1cc(C)cc(Nc2nccc(-c3nc(C)c(CCO)s3)n2)c1`, the negative logarithm of the IC50 (pIC50) was 7.49. The same measure, in the same setting: the value for `NCCCNc1ncc(C(N)=O)c(Nc2cccc(C(F)(F)F)c2)n1` was 6.64; that for `COc1c(C[C@@H](C)OC(=O)Oc2ccc(O)cc2)c2c3c(C[C@@H](C)OC(=O)c4ccccc4)c(OC)c(=O)c4c(O)cc(OC)c(c5c(OC)cc(O)c(c1=O)c52)c43` [CALPHOSTIN C] was 5.96; that for `c1ccn(CCOc2ccc(Nc3nccc(-c4nccs4)n3)cc2)c1` was 6.30. Still for that read-out and setting: the value for `c1ccc(Oc2cccc(Nc3nccc(-c4nccs4)n3)c2)cc1` was 6.00. The same measure, in the same setting: next, `Cc1cc(C)cc(Nc2nccc(-c3nc(C)cs3)n2)c1`: 7.25. Regarding `c1ccc(COc2cccc(Nc3nccc(-c4nccs4)n3)c2)cc1`, the pIC50 is 6.30.

Another experiment concerns the target T1, Tyrosine-protein kinase SYK. Put plainly: Inhibition of recombinant Syk at 10 uM.
Usually inhibition stands for the relative decrease from the control value, in per cent. As for `O=C1NC(=O)N(c2cccc(Cl)c2)C(=O)/C1=C\Nc1ccc(Cl)cc1[N+](=O)[O-]`, the inhibition worked out at 51%. For `COc1cccc2cc(C(N)=O)/c(=N/c3ccc(-c4ccccc4)cc3)oc12`, the inhibition came out at 63%.
